According to ChEMBL document CHEMBL5046251, “Discovery of a Series of Pyrimidine Carboxamides as Inhibitors of Vanin-1” (J Med Chem, 2022):
pIC50, pKd: −log10 of the molar value. The source made the active and inactive calls. No cut-off for these calls is given here.

Assays:
Pantetheinase [1] = biological target: T1, Pantetheinase (Homo sapiens, UniProt O95497); assay: Inhibition of human plasma vanin-1 using pantetheine-7-amino-4-trifluoromethykournarin as substrate preincubated for 30 mins followed by substrate addition; format: cell-free
T1 sequence (O95497 whole entry): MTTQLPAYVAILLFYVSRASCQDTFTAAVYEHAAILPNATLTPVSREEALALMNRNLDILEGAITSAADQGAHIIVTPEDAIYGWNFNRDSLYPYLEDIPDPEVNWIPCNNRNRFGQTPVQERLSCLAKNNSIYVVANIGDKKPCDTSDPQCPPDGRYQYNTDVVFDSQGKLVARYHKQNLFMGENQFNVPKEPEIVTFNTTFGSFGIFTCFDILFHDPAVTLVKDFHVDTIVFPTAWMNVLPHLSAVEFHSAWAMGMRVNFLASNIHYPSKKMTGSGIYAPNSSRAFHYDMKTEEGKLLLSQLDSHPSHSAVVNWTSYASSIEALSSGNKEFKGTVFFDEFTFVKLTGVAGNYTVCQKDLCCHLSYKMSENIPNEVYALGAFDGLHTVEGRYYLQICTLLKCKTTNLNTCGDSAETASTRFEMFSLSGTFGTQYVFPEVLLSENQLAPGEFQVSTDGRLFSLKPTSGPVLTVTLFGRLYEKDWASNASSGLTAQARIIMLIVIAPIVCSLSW

Mus musculus [2] = assay: Anti-colitis activity against DSS-induced BALB/c mouse model assessed as increase in body weight at 50 mg/kg, sc measured on day 8 and 9; format: functional, organism-based; settings: time 8-9 day
[3] = Apparent intrinsic clearance in mouse liver microsome; format: ADME; settings: liver microsomes, read-out: CLH
Biotinidase = biological target: T2, Biotinidase (Homo sapiens, UniProt P43251); assay: Inhibition of N-terminal FLAG/His6-tagged human biotinidase expressed in COS cells using biotinyl-7-amino-4-trifluoromethylcoumarin as substrate preincubated for 10 mins followed by substrate addition and measured after 90 mins; format: cell-based
T2 sequence (P43251 whole entry): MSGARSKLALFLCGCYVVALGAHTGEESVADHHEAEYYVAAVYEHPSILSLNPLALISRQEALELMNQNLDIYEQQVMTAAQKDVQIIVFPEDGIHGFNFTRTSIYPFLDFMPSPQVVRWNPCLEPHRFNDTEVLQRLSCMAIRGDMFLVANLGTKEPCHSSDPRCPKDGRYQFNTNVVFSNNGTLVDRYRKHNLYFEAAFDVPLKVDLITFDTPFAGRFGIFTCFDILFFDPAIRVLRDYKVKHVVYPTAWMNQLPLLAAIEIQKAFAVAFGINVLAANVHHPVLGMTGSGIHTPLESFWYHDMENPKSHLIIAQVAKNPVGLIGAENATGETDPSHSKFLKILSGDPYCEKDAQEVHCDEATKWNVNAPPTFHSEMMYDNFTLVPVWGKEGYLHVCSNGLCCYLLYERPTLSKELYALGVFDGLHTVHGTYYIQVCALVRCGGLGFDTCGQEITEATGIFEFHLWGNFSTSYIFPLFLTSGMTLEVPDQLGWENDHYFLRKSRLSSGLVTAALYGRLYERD

Mus musculus [4] = assay: Anti-colitis activity against DSS-induced BALB/c mouse model assessed as reduction in disease activity index at 50 mg/kg, sc measured on day 8 and 9; format: functional, organism-based; settings: time 8-9 day
[5] = Plasma protein binding in mouse assessed as unbound fraction; format: ADME, cell-free
Mus musculus [6] = assay: Anti-colitis activity against DSS-induced colitis BALB/c mouse model assessed as effect on colon length at 50 mg/kg, sc measured after 14 days; format: functional, organism-based; settings: time 14.0 day
[7] = Intrinsic clearance in human liver microsomes; format: ADME, Microsome
[8] = Volume of distribution at steady state in mouse; format: ADME, organism-based; settings: in vivo, read-out: Vdss
[9] = Half life in mouse; format: ADME, organism-based; settings: in vivo
Pantetheinase [10] = biological target: T3, Pantetheinase (Mus musculus, UniProt Q9Z0K8); assay: Inhibition of mouse vanin-1
T3 sequence (Q9Z0K8 whole entry): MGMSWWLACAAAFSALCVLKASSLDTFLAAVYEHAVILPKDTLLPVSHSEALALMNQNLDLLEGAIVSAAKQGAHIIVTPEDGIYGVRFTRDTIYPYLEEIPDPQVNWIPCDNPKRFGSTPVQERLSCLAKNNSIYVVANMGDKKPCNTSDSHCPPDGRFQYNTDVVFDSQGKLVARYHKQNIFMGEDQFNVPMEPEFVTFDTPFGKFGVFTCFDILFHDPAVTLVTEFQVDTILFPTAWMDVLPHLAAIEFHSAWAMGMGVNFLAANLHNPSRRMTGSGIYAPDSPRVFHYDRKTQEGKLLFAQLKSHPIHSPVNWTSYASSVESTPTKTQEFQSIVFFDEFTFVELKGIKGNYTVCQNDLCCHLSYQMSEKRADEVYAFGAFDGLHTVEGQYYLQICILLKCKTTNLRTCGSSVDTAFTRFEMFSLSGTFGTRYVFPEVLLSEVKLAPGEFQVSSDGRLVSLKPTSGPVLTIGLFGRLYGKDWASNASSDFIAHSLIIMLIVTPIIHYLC

[11] = Oral bioavailability in mouse; format: ADME, organism-based; settings: in vivo
[12] = Lipophilicity, log D of the compound in Octanol/buffer by shake-flask method
[13] = Apparent intrinsic clearance in human liver microsome; format: ADME; settings: liver microsomes, read-out: CLH
[14] = Total clearance in mouse; format: ADME, organism-based; settings: in vivo
[15] = Unbound clearance in mouse; format: ADME, organism-based; settings: in vivo
[16] = Apparent permeability across apical to basolateral side in RRCK cells; settings: dog, MDCK
[17] = Efflux ratio in human MDR cells; format: ADME, cell-based
[18] = biological target: T4, Pantetheinase (Homo sapiens) (UniProt O95497); assay: Binding affinity to recombinant N-terminal FLAG/His6-tagged human vanin-1 expressed in CHO cells assessed as binding constant (Kon) by surface plasmon resonance analysis
T4 sequence (whole entry): T1 sequence (O95497 whole entry)

[19] = Plasma protein binding in human assessed as unbound fraction; format: ADME, cell-free
Caspase-2 = biological target: T5, Caspase-2 (Homo sapiens, UniProt P42575); assay: Inhibition of caspase-2 (unknown origin)
T5 sequence (P42575 whole entry): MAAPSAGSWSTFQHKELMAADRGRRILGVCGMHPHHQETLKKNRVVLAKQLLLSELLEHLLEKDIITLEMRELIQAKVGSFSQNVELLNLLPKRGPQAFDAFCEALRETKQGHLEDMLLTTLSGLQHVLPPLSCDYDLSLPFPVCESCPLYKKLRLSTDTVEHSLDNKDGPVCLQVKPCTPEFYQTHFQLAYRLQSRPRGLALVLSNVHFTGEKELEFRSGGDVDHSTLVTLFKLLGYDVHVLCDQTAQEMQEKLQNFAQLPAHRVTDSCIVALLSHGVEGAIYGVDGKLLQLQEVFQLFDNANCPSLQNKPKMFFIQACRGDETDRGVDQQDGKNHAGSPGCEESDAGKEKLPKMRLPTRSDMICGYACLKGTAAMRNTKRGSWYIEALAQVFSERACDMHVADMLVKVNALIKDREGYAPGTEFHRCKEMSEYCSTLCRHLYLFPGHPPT

[20] = Volume of distribution at steady state in rat; format: ADME; settings: in vivo, read-out: Vdss
[21] = Oral bioavailability in rat; format: ADME, organism-based; settings: in vivo
[22] = Clearance in rat; format: ADME; settings: in vivo
[23] = Intrinsic clearance in rat hepatocytes assessed per million cells; format: ADME, cell-based, Hepatocyte
Pantetheinase [24] = biological target: T1, Pantetheinase; assay: Inhibition of recombinant N-terminal FLAG/His6-tagged human vanin-1 expressed in CHO cells at 10 uM by 1H NMR analysis; format: cell-based
[25] = biological target: T4, Pantetheinase (Homo sapiens); assay: Binding affinity to recombinant N-terminal FLAG/His6-tagged human vanin-1 expressed in CHO cells assessed as binding constant (Koff) by surface plasmon resonance analysis
Caspase-3 = biological target: T6, Caspase-3 (Homo sapiens, UniProt P42574); assay: Inhibition of caspase-3 (unknown origin)
T6 sequence (P42574 whole entry): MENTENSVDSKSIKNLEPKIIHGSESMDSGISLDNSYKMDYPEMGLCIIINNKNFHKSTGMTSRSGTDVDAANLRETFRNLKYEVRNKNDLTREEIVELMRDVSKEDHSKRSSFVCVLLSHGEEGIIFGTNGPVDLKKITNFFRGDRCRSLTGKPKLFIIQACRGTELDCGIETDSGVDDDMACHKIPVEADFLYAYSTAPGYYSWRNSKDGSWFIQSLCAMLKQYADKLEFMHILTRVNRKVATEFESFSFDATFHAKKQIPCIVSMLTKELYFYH

[26] = Intrinsic clearance in human hepatocytes assessed per million cells; format: ADME, cell-based, Hepatocyte
Caspase-1 = biological target: T7, Caspase-1 (Homo sapiens, UniProt P29466); assay: Inhibition of caspase-1 (unknown origin)
T7 sequence (P29466 whole entry): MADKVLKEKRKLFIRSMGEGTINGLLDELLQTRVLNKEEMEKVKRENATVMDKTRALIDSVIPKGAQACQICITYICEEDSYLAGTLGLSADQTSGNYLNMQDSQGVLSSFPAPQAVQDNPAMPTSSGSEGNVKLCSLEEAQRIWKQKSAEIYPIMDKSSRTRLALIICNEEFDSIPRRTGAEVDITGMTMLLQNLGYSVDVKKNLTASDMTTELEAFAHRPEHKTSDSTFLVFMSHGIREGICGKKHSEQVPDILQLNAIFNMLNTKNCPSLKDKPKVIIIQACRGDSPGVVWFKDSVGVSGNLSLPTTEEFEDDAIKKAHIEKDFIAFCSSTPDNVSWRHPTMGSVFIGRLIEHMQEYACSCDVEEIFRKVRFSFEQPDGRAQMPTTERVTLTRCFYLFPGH

Pantetheinase [27] = biological target: T1, Pantetheinase; assay: Binding affinity to recombinant N-terminal FLAG/His6-tagged human vanin-1 expressed in CHO cells assessed as dissociation constant by surface plasmon resonance analysis
[28] = Half life in rat; format: ADME; settings: in vivo
Mus musculus [29] = assay: Anti-colitis activity against DSS-induced colitis BALB/c mouse model assessed as effect on colon length at 100 mg/kg, po measured after 14 days; format: functional, organism-based; settings: time 14.0 day
Mus musculus [30] = assay: Anti-colitis activity against DSS-induced BALB/c mouse model assessed as increase in body weight at 100 mg/kg, po administered for 5 to 14 days; format: functional, organism-based; settings: time 5-14 day
Mus musculus [31] = assay: Anti-colitis activity against DSS-induced BALB/c mouse model assessed as reduction in disease activity index at 100 mg/kg, po administered for 5 to 14 days; format: functional, organism-based; settings: time 5-14 day

## N#Cc1cccc(C(=O)c2cnc(NC3(c4cncnc4)CC3)nc2)c1
Pantetheinase [1]
  pIC50: 7.92
Mus musculus [2]
  Activity: Active
[3]
  CLint scaled: 2.34 L/h/kg
Biotinidase
  pIC50: 4.62
Mus musculus [4]
  Activity: Active
[5]
  fraction unbound: 0.0046
Mus musculus [6]
  Activity: Active
[7]
  Intrinsic clearance: 14 µL/min/mg
[8]
  Vd: 1.1 L/kg
[9]
  half-life: 60 min
Pantetheinase [10]
  pIC50: 8.32
[11]
  bioavailability: 29%
[12]
  logD: 1.2
[13]
  CLint scaled: 0.84 L/h/kg
[14]
  clearance: 1.74 L/h/kg
[15]
  CL free: 2.94 L/h/kg
[16]
  Papp A→B: 270 nm/s

## O=C(c1cnc(NC2(c3cncnc3)CC2)nc1)N1CCCCC1
[17]
  efflux ratio: 3.2
[18]
  K: 8.1 10^7/M/s
[19]
  fraction unbound: 0.00918
Caspase-2
  pIC50: < 5.00
[20]
  Vd: 1.1 L/kg
[21]
  bioavailability: 11%
Biotinidase
  pIC50: 4.74
[22]
  clearance: 5.28 L/h/kg
[23]
  CLint: 45 µL/min/1e6 cells
Pantetheinase [24]
  pIC50: 6.94
[25]
  K: 0.52 s⁻¹
[7]
  Intrinsic clearance: < 10 µL/min/mg
Caspase-3
  pIC50: < 5.00
Pantetheinase [10]
  pIC50: 7.99
[26]
  CLint: 11 µL/min/1e6 cells
Caspase-1
  pIC50: < 5.00
[12]
  logD: 0.7
Pantetheinase [27]
  pKd: 7.70
[28]
  half-life: 9 min
[16]
  Papp A→B: 95 nm/s

## O=C(O)c1cc(/N=N/c2ccc(S(=O)(=O)Nc3ccccn3)cc2)ccc1O
Mus musculus [29]
  Activity: Active
Mus musculus [30]
  Activity: Active
Mus musculus [31]
  Activity: inactive
